Data as given in patent US5840684A, “Glycopeptide antibiotic derivatives” (Eli Lilly and Company, priority 1995, dated 1998).
Converted amounts (≈) assume the structure as drawn.

Tests used:
[1] = test system: Staphylococcus aureus S13E; assay type: cell-based
Experimental: (§1) The MIC's were determined using a standard broth micro-dilution assay.

[2] = test system: Staphylococcus aureus SA1199B; assay type: cell-based
Experimental: as §1

[3] = test system: Entercoccus faecium 180-1; experiment: broth micro-dilution MIC; assay type: cell-based
Experimental: as §1

Entercoccus faecium 276 = experiment: broth micro-dilution MIC; assay type: cell-based
Experimental: as §1

[4] = test system: Staphylococcus aureus 446; experiment: broth micro-dilution MIC; assay type: cell-based
Experimental: as §1

[5] = test system: Staphylococcus aureus 447; experiment: broth micro-dilution MIC; assay type: cell-based
Experimental: as §1

[6] = test system: Staphylococcus aureus 489; experiment: broth micro-dilution MIC; assay type: cell-based
Experimental: as §1

[7] = test system: Staphylococcus aureus 491; experiment: broth micro-dilution MIC; assay type: cell-based
Experimental: as §1

[8] = test system: Staphylococcus aureus SA1199A; experiment: broth micro-dilution MIC; assay type: cell-based
Experimental: as §1

[9] = test system: Staphylococcus aureus SA1199; experiment: broth micro-dilution MIC; assay type: cell-based
Experimental: as §1

[10] = test system: Staphylococcus aureus X400; experiment: broth micro-dilution MIC; assay type: cell-based
Experimental: as §1

[11] = test system: Staphylococcus aureus X778; experiment: broth micro-dilution MIC; assay type: cell-based
Experimental: as §1

[12] = test system: Streptococcus pyogenes C203; experiment: broth micro-dilution MIC; assay type: cell-based
Experimental: as §1

Entercoccus faecium 180 = experiment: broth micro-dilution MIC; assay type: cell-based; conditions: Entercoccus faecium 180
Experimental: (§2) The formula I compounds have in vitro and in vivo activity against Gram-positive pathogenic bacteria. The MIC's were determined using a standard broth micro-dilution assay.

Entercoccus faecium 2041 = experiment: broth micro-dilution MIC; assay type: cell-based; conditions: Entercoccus faecium 2041
Experimental: as §2

[13] = test system: Enterococcus gallinarum 245; experiment: broth micro-dilution MIC; assay type: cell-based; conditions: Enterococcus gallinarum 245
Experimental: as §2

Escherichia coli EC14 = experiment: broth micro-dilution MIC; assay type: cell-based
Experimental: as §2

[14] = test system: Haemophilus influenzae RD; experiment: broth micro-dilution MIC; assay type: cell-based; conditions: Haemophilus influenzae RD
Experimental: as §2

[15] = test system: Staphylococcus epidermidis 270; experiment: broth micro-dilution MIC; assay type: cell-based
Experimental: as §2

[16] = test system: Staphylococcus haemolyticus 105; experiment: broth micro-dilution MIC; assay type: cell-based
Experimental: as §2

[17] = test system: Staphylococcus haemolyticus 415; experiment: broth micro-dilution MIC; assay type: cell-based
Experimental: as §2

[18] = test system: Streptococcus pneumoniae P1; experiment: broth micro-dilution MIC; assay type: cell-based
Experimental: as §2

[19] = test system: vancomycin-resistant enterococci; experiment: broth micro-dilution, mean geometric MIC; assay type: cell-based, Enterococcus faecium and Enterococcus faecalis; conditions: enterococci, 24-hour incubation
[20] = test system: vancomycin-susceptible enterococci; experiment: broth micro-dilution, mean geometric MIC; assay type: cell-based, Enterococcus faecium and Enterococcus faecalis; conditions: enterococci, 24-hour incubation

SMILES	MIC [1] [µg/mL]	MIC [2] [µg/mL]	MIC [3] [µg/mL]	MIC (Entercoccus faecium 276) [µg/mL]	MIC [4] [µg/mL]	MIC [5] [µg/mL]	MIC [6] [µg/mL]	MIC [7] [µg/mL]	MIC [8] [µg/mL]	MIC [9] [µg/mL]	MIC [10] [µg/mL]	MIC [11] [µg/mL]	MIC [12] [µg/mL]	MIC (Entercoccus faecium 180) [µg/mL]	MIC (Entercoccus faecium 2041) [µg/mL]	MIC [13] [µg/mL]	MIC (Escherichia coli EC14) [µg/mL]	MIC [14] [µg/mL]	MIC [15] [µg/mL]	MIC [16] [µg/mL]	other results
CC(C)CC(C(=O)NC1C(=O)NC(CC(N)=O)C(=O)NC2C(=O)NC3C(=O)NC(C(=O)NC(C(=O)O)c4cc(O)cc(O)c4-c4cc3ccc4O)C(OC3CC(C)(N)C(O)C(C)O3)c3ccc(c(Cl)c3)Oc3cc2cc(c3OC2OC(CO)C(O)C(O)C2OC2CC(C)(N)C(O)C(C)O2)Oc2ccc(cc2Cl)C1O)N(C)Cc1ccc(O)cc1 (stereo not drawn) [Compound 257]	≤ 0.06	≤ 0.06	≤ 0.06	≤ 0.06	≤ 0.06	0.25 (≈ 0.147 µM)	≤ 0.06	≤ 0.06	≤ 0.06	≤ 0.06	≤ 0.06	≤ 0.06	≤ 0.06	4 (≈ 2.35 µM)	≤ 0.06	≤ 0.06	> 64	> 64	0.25 (≈ 0.147 µM)	2 (≈ 1.18 µM)	MIC [17]: 8 µg/mL (≈ 4.71 µM); MIC [18]: ≤ 0.06 µg/mL; mean geometric MIC, Vancomycin Resistant Strains [19]: 64 µg/mL; mean geometric MIC, Vancomycin Sensitive Strains [20]: 1 µg/mL
CC(C)CC(C(=O)NC1C(=O)NC(CC(N)=O)C(=O)NC2C(=O)NC3C(=O)NC(C(=O)NC(C(=O)O)c4cc(O)cc(O)c4-c4cc3ccc4O)C(OC3CC(C)(N)C(O)C(C)O3)c3ccc(c(Cl)c3)Oc3cc2cc(c3OC2OC(CO)C(O)C(O)C2OC2CC(C)(NCc3ccc(-c4ccccc4)cc3)C(O)C(C)O2)Oc2ccc(cc2Cl)C1O)N(C)Cc1ccc(-c2ccccc2)cc1 (stereo not drawn) [Compound 251]	≤ 0.06	≤ 0.06	≤ 0.06	≤ 0.06	0.25 (≈ 0.13 µM)	0.125 (≈ 0.0649 µM)	≤ 0.06	≤ 0.06	≤ 0.06	≤ 0.06	≤ 0.06	≤ 0.06	≤ 0.06	2 (≈ 1.04 µM)	≤ 0.06	4 (≈ 2.08 µM)	> 64	> 64	0.25 (≈ 0.13 µM)	2 (≈ 1.04 µM)	MIC [17]: 4 µg/mL (≈ 2.08 µM); MIC [18]: ≤ 0.06 µg/mL; mean geometric MIC, Vancomycin Resistant Strains [19]: 2 µg/mL; mean geometric MIC, Vancomycin Sensitive Strains [20]: 0.66 µg/mL
CC(C)CC(C(=O)NC1C(=O)NC(CC(N)=O)C(=O)NC2C(=O)NC3C(=O)NC(C(=O)NC(C(=O)O)c4cc(O)cc(O)c4-c4cc3ccc4O)C(OC3CC(C)(NCc4cccc5c([N+](=O)[O-])cccc45)C(O)C(C)O3)c3ccc(c(Cl)c3)Oc3cc2cc(c3OC2OC(CO)C(O)C(O)C2OC2CC(C)(N)C(O)C(C)O2)Oc2ccc(cc2Cl)C1O)N(C)Cc1cccc2c([N+](=O)[O-])cccc12 (stereo not drawn) [Compound 286]	4 (≈ 2.04 µM)	4 (≈ 2.04 µM)	0.25 (≈ 0.127 µM)	1 (≈ 0.509 µM)	1 (≈ 0.509 µM)	8 (≈ 4.08 µM)	2 (≈ 1.02 µM)	2 (≈ 1.02 µM)	≤ 0.06	2 (≈ 1.02 µM)	2 (≈ 1.02 µM)	4 (≈ 2.04 µM)	≤ 0.06	8 (≈ 4.08 µM)	1 (≈ 0.509 µM)	4 (≈ 2.04 µM)	> 64	> 64	4 (≈ 2.04 µM)	8 (≈ 4.08 µM)	MIC [17]: 4 µg/mL (≈ 2.04 µM); MIC [18]: ≤ 0.06 µg/mL; mean geometric MIC, Vancomycin Resistant Strains [19]: 19 µg/mL; mean geometric MIC, Vancomycin Sensitive Strains [20]: 1.1 µg/mL
CC(C)CC(C(=O)NC1C(=O)NC(CC(N)=O)C(=O)NC2C(=O)NC3C(=O)NC(C(=O)NC(C(=O)O)c4cc(O)cc(O)c4-c4cc3ccc4O)C(OC3CC(C)(N)C(O)C(C)O3)c3ccc(c(Cl)c3)Oc3cc2cc(c3OC2OC(CO)C(O)C(O)C2OC2CC(C)(NCc3ccc4c(c3)OCO4)C(O)C(C)O2)Oc2ccc(cc2Cl)C1O)N(C)Cc1ccc2c(c1)OCO2 (stereo not drawn) [Compound 265]	0.5 (≈ 0.269 µM)	0.5 (≈ 0.269 µM)	≤ 0.06	0.5 (≈ 0.269 µM)	2 (≈ 1.07 µM)	2 (≈ 1.07 µM)	0.5 (≈ 0.269 µM)	2 (≈ 1.07 µM)	≤ 0.06	2 (≈ 1.07 µM)	0.5 (≈ 0.269 µM)	0.5 (≈ 0.269 µM)	≤ 0.06	8 (≈ 4.3 µM)	0.25 (≈ 0.134 µM)	1 (≈ 0.537 µM)	> 64	> 64	4 (≈ 2.15 µM)	8 (≈ 4.3 µM)	MIC [17]: 1 µg/mL (≈ 0.537 µM); MIC [18]: ≤ 0.06 µg/mL; mean geometric MIC, Vancomycin Resistant Strains [19]: 54 µg/mL; mean geometric MIC, Vancomycin Sensitive Strains [20]: 0.87 µg/mL
CC(C)CC(C(=O)NC1C(=O)NC(CC(N)=O)C(=O)NC2C(=O)NC3C(=O)NC(C(=O)NC(C(=O)O)c4cc(O)cc(O)c4-c4cc3ccc4O)C(OC3CC(C)(N)C(O)C(C)O3)c3ccc(c(Cl)c3)Oc3cc2cc(c3OC2OC(CO)C(O)C(O)C2OC2CC(C)(NCc3cccc4c3OCO4)C(O)C(C)O2)Oc2ccc(cc2Cl)C1O)N(C)Cc1cccc2c1OCO2 (stereo not drawn) [Compound 269]	1 (≈ 0.537 µM)	0.5 (≈ 0.269 µM)	0.125 (≈ 0.0672 µM)	0.125 (≈ 0.0672 µM)	2 (≈ 1.07 µM)	4 (≈ 2.15 µM)	0.25 (≈ 0.134 µM)	1 (≈ 0.537 µM)	≤ 0.06	0.25 (≈ 0.134 µM)	0.5 (≈ 0.269 µM)	0.25 (≈ 0.134 µM)	≤ 0.06	4 (≈ 2.15 µM)	0.125 (≈ 0.0672 µM)	4 (≈ 2.15 µM)	> 64	> 64	8 (≈ 4.3 µM)	8 (≈ 4.3 µM)	MIC [17]: 4 µg/mL (≈ 2.15 µM); MIC [18]: ≤ 0.06 µg/mL; mean geometric MIC, Vancomycin Resistant Strains [19]: 38 µg/mL; mean geometric MIC, Vancomycin Sensitive Strains [20]: 1.1 µg/mL
